# Where two headings read alike, the source gives them in different places.
# What was measured:
# PARP 1 = PARP 1 (Homo sapiens, UniProt P09874); conditions: cell-free assay; cited from earlier work
# PARP-DNA complexes = conditions: compared with veliparib; cited from earlier work
# HCC1806 = test: Cell survival (CellTiter-Glo) after SN-38 and/or PARP inhibitor; type: cell-based; conditions: Exp. 1, single agent
# Experimental: (§1) Cells were plated at 1000 cells/well and then incubated for 24 hours. […] The plates were then allowed to incubate for 72 hours period. After the 72 hour incubation period the media was removed and cell viability was determined using the CellTiter-Glo® cell viability assay (Promega, Madison Wis.) according to the product instructions.
# BT20 = test: as above; type: cell-based; conditions: for IC50: Homo sapiens
# Experimental: as §1
# HCC38 = test: as above; type: cell-based; conditions: HCC38, Exp. 1, single agent
# Experimental: as §1
# SUM159PT = test: as above; type: cell-based; conditions: for IC50: Homo sapiens, SUM-159-PT
# Experimental: as §1
# HCC1187 = test: as above; type: cell-based; conditions: for IC50: Homo sapiens
# Experimental: as §1
# BT549 = test: as above; type: cell-based; conditions: for IC50: Homo sapiens
# Experimental: as §1
# [1] = system: CFPAC-1 pancreatic cancer cells; test: % cell number over time, SN-38 with PARP inhibitors; type: cell-based; conditions: SN-38 at 2 nM
# tankyrase-1 = tankyrase-1 (Homo sapiens, UniProt O95271); conditions: cell-free assays; cited from earlier work
# [2] = system: small cell lung cancer (SCLC), pancreatic cancer and breast cancer cell lines; test: Growth inhibition, SN-38 with PARP inhibitors; type: cell-based; conditions: 2 nM SN-38
# [3] = system: NCI-H1048 small cell lung cancer cells; test: % cell number over time, SN-38 with PARP inhibitors; type: cell-based; conditions: SN-38 at 2 nM; NCI-H1048 SCLC cells
# PAR = conditions: Table 2B, unit inferred; cited from earlier work
# [4] = system: DMS-114 small cell lung cancer cells; test: % cell number over time, SN-38 with PARP inhibitors; type: cell-based; conditions: SN-38 at 2 nM; DMS-114 SCLC cells
# SUM149PT = test: Cell survival (CellTiter-Glo) after SN-38 and/or PARP inhibitor; type: cell-based; conditions: Homo sapiens, read-out: IC50 log10 (μM) (converted)
# Experimental: as §1
# [5] = Homo sapiens, read-out: IC50 log10 (converted)
# Sequence of tankyrase-1 (O95271 whole entry, species assumed): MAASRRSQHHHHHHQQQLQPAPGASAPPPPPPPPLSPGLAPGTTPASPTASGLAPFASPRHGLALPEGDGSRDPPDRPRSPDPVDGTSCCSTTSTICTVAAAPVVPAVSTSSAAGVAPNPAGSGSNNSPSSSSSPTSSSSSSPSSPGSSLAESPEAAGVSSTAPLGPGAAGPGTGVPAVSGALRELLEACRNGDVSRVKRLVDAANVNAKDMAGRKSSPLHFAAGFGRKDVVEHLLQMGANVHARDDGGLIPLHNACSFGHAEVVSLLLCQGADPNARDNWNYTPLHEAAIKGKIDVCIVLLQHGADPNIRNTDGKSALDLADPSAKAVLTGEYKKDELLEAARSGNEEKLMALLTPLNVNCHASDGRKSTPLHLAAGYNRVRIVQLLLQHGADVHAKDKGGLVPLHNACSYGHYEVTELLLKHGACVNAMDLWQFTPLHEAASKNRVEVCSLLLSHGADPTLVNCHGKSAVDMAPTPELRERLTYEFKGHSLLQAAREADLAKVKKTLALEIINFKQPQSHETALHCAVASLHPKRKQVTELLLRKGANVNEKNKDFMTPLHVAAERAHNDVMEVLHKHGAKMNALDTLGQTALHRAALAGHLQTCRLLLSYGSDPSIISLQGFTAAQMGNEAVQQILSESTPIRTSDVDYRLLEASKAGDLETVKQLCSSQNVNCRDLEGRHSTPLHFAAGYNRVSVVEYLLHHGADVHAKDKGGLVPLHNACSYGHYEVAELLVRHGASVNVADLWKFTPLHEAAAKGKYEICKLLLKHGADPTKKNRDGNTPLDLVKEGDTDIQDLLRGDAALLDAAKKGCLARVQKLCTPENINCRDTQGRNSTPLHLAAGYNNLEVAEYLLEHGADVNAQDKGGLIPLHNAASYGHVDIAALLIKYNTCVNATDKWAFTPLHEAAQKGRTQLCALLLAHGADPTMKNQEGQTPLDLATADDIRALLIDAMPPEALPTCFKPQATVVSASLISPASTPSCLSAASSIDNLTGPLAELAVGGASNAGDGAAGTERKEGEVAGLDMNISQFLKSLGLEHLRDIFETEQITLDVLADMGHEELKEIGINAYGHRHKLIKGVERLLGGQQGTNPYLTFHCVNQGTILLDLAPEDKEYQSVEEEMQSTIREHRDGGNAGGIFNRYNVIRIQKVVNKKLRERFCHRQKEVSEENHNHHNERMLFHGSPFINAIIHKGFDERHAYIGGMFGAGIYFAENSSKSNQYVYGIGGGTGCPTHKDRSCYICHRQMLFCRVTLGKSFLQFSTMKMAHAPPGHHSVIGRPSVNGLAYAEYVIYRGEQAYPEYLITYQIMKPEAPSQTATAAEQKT
# Sequence of PARP 1 (P09874 whole entry, species assumed): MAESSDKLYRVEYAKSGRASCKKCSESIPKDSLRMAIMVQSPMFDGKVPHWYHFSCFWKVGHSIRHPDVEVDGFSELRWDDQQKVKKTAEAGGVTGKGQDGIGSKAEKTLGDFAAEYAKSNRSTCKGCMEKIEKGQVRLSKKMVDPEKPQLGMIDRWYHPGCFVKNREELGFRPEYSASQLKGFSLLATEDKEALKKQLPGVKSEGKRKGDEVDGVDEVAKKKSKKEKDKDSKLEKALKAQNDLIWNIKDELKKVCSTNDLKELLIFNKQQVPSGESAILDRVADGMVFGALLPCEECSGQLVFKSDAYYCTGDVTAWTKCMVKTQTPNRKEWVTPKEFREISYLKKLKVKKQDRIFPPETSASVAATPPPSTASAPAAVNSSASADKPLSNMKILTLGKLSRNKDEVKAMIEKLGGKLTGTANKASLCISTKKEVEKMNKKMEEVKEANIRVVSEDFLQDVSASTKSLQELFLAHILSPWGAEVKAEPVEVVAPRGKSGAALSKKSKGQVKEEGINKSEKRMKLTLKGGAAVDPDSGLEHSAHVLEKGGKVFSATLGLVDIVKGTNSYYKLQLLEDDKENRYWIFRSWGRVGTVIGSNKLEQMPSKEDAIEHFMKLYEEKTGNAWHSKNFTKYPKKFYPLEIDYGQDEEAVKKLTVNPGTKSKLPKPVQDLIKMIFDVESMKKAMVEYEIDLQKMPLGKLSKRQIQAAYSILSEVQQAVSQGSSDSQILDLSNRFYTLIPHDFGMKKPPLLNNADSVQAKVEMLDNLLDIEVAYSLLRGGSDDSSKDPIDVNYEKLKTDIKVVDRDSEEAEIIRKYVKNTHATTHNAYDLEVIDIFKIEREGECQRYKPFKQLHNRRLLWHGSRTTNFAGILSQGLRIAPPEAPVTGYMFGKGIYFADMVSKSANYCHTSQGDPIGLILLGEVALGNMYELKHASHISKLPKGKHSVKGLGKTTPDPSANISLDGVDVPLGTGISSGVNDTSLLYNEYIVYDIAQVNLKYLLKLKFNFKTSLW
smiles,measurement,setting,value
CN(C)Cc1ccc(-c2nc3cccc4c3n2CCNC4=O)cc1 [AG-14361],Ki,PARP 1,< 0.005 µM
NC(=O)c1cccc2cn(-c3ccc([C@@H]4CCCNC4)cc3)nc12 [Niraparib],potency at PARP trapping,PARP-DNA complexes,much more potent at PARP trapping than veliparib
same,Maximum Kill Percent,HCC1806,100%
same,IC50,HCC1806; [5],18.6 µM
same,Maximum Kill Percent,"BT20; BT20, Exp. 1, single agent",100%
same,IC50,"BT20; BT-20, BT20, Exp. 1, single agent, read-out: IC50 log10 (converted)",138 µM
same,Maximum Kill Percent,HCC38,100%
same,IC50,HCC38; [5],17 µM
same,IC50,"SUM159PT; SUM159PT, Exp. 1, single agent, read-out: IC50 log10 (converted)",2.24 µM
same,Maximum Kill Percent,"SUM159PT; SUM159PT, Exp. 1, single agent",97%
same,Maximum Kill Percent,"HCC1187; HCC1187, Exp. 1, single agent",98%
same,IC50,"HCC1187; HCC1187, Exp. 1, single agent, read-out: IC50 log10 (converted)",129 µM
same,Maximum Kill Percent,"BT549; BT549, Exp. 1, single agent",100%
same,IC50,"BT549; BT-549, BT549, Exp. 1, single agent, read-out: IC50 log10 (converted)",107 µM
O=C(c1cc(Cc2n[nH]c(=O)c3ccccc23)ccc1F)N1CCN(C(=O)C2CC2)CC1 [Olaparib],effect of combination with SN-38,[1],Additive/synergistic effects
same,Estimated tumor range,Estimated tumor range,8 µM
same,less effective against tankyrase-1 than against PARP 1/2,tankyrase-1,300 times
same,growth inhibition of the cancer cells in combination with SN-38,[2],additive/synergistic growth inhibition
same,sensitivity of cells to combination with SN-38,[3],very sensitive
same,EC50,PAR,0.0036 µM
same,effect of combination with SN-38,[4],Additive/synergistic effects
same,IC50,"BT20; BT-20, read-out: IC50 log10 (μM) (converted)",17.4 µM
same,IC50,SUM149PT,251 µM
same,IC50,SUM159PT; read-out: IC50 log10 (μM) (converted),1.51 µM
same,IC50,"HCC1187; HCC1187, read-out: IC50 log10 (μM) (converted)",257 µM
same,IC50,"BT549; BT-549, read-out: IC50 log10 (μM) (converted)",110 µM
